From patent US20230293539A1, “MLL1-WDR5 PROTEIN-PROTEIN INTERACTION INHIBITOR COMPOUNDS AND USES THEREOF” (HUYABIO International, LLC, priority 2022, published 2023)

Key:
[1] = Dog PK (oral); format: in vivo, Beagle dogs; details: for Cmax / AUC(0-t) / half-life: Beagle, plasma
Procedure: Dog PK: Fasted or fed non-naïve Beagle dogs (Marshall Bioresources, Beijing, China) were administered a single intravenous bolus or oral gavage administration of test compounds at respective doses. Blood samples for plasma isolation were collected from a peripheral vessel, from restrained, non-sedated animals at the respective sampling time points. The quantification of compound concentrations in dog plasma was quantified using LC-MS/MS method. Plasma concentration versus time data was analyzed by non-compartmental mode approaches using the WinNonlin software program (version 6.3 or above, Pharsight). Pharmacokinetic parameters, including C0, CL, Vdss, Cmax, Tmax T1/2, AUC0-last, AUC0-inf, MRT0-last, MRT0-inf, bioavailability (%) for IV and PO groups were calculated. See FIGS. 9A, […], 9C and FIGS. 10A, 10B, 10C, and 10D.

[2] = in vitro; details: rat, plasma
[3] = target: PTP1B (Homo sapiens, UniProt P18031); experiment: Selectivity panel (Table 3); format: biochemical
[4] = target: HDAC3 (Homo sapiens, UniProt O15379); experiment: Selectivity panel (Table 3); format: biochemical
[5] = Predicted brain concentrations based on mouse/rat PK/BBB data; details: Equivalent Human 6.5 mg/kg
Procedure: The ability of a compound of Formula (IIIb) (HBI_084 (HBI-2375)) to cross the BBB is determined in a population comprising one or more human subjects by orally (PO) or intravenously (IV) administering a pharmaceutical composition comprising a compound of Formula (IIIb) to the individual members of the population of human subjects at one or more doses described in Example 5. Blood samples and CSF are drawn from the subjects and compound concentrations are determined in the blood plasma and CSF of the subjects as described in Example 4. Pharmacokinetic parameters are determined by means analogous to those described in Examples 1-4. Doses for HBI-2375 may be based on a target concentration in subjects' brain predicted using the following table.

[6] = test system: MV 411 cells; experiment: Cell Viability Assay (CellTiter-Glo); format: cell-based; details: Homo sapiens, MV4-11, 72 hours, read-out: IC50 (anti-proliferative activity against leukemia cells)
Procedure: Cell lines and maintenance: All cell lines (MV 411) used for in vitro and in vivo studies were supplied as part of Wuxi AppTech cell bank. Cell lines were maintained in a medium supplemented with 10% heat inactivated fetal bovine serum at 37° C., in an atmosphere of 5% CO2, in air. The tumor cells were routinely subcultured twice weekly. The cells growing in an exponential growth phase were used for the in vitro cell potency and in vivo efficacy studies.
EXAMPLE 1: Cell Viability Assay: For cell cytotoxicity assays, 2000 cells/well were plated in 384-well plates. Twenty four hours after plating, cells were treated with inhibitors at the indicated compound concentrations. On Day 3 (72 hours), cells were lysed with CellTiter-Glo® Luminescent Cell Viability Assay reagent (Promega) and luminescence was read using the EnVision Multi-plate reader. To calculate IC50, a dose-response curve is generated using a nonlinear regression model with a sigmoidal dose response. The formula of surviving rate is shown below. IC50 values were automatically generated by GraphPad Prism 8.0. See FIG. 1A and FIG. 1B and Tables 3 and 4.

[7] = target: HDAC2 (Homo sapiens, UniProt Q92769); experiment: Selectivity panel (Table 3); format: biochemical
[8] = target: CD73 (Homo sapiens, UniProt P21589); experiment: Selectivity panel (Table 3); format: biochemical
[9] = target: CD39 (Homo sapiens, UniProt P49961); experiment: Selectivity panel (Table 3); format: biochemical
[10] = Metabolite ID in plasma; format: in vitro ADME; details: HBI-2375 and metabolites in Rat plasma
[11] = in vitro; details: human, plasma
[12] = Metabolite ID in plasma; format: in vitro ADME; details: HBI-2375 and metabolites in Mouse plasma
[13] = target: MALTI (Homo sapiens, UniProt Q9UDY8); experiment: Selectivity panel (Table 3); format: biochemical
[14] = target: HDAC1 (Homo sapiens, UniProt Q13547); experiment: Selectivity panel (Table 3); format: biochemical
[15] = target: KRAS WT (Homo sapiens, UniProt P01116); experiment: Selectivity panel (Table 3); format: binding
[16] = target: SHP2 D61G (Homo sapiens, UniProt Q06124, D61G); experiment: Selectivity panel (Table 3); format: biochemical
[17] = target: KRAS G12D (Homo sapiens, UniProt P01116, G12D); experiment: Selectivity panel (Table 3); format: binding
[18] = target: TEAD4 (Homo sapiens, UniProt Q15561); experiment: Selectivity panel (Table 3); format: binding
[19] = target: POLQPolymerase (Homo sapiens, UniProt O75417); experiment: Selectivity panel (Table 3); format: biochemical
[20] = target: SHP2 WT (Homo sapiens, UniProt Q06124); experiment: Selectivity panel (Table 3); format: biochemical
[21] = Liver S9 stability assay; format: in vitro ADME, rat
Procedure: Liver S9 stability assay: Test compounds (1 μM) and positive control were incubated with 5 mM GSH and liver S9 (1 mg protein/ml) from multiple species (including human, monkey, dog, rat and mouse) at 37° C. at 0, 10, 30, and 60 minutes in duplicate. After adding the stop solution, 100 μL of supernatant were analyzed by LC-MS/MS. The % remaining of test compound, T1/2 (min), and CLint (μL/min/mg) were calculated and were reported.

Chain of CD73 (P21589 27-549, species assumed): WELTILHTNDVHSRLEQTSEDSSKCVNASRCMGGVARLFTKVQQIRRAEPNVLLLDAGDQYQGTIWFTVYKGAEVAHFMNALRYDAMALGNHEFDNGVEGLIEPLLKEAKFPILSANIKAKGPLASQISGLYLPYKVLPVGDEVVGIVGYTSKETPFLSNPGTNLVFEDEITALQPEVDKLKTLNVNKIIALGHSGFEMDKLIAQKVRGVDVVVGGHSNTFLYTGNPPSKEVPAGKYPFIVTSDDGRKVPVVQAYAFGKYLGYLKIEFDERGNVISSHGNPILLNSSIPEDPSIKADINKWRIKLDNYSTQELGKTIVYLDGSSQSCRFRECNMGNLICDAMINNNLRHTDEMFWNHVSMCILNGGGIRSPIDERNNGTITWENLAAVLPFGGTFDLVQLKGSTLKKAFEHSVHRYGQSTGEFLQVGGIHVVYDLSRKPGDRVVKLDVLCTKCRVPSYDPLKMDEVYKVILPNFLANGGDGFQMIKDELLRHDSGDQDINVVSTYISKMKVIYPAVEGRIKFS
Chain of HDAC3 (O15379 whole entry, species assumed): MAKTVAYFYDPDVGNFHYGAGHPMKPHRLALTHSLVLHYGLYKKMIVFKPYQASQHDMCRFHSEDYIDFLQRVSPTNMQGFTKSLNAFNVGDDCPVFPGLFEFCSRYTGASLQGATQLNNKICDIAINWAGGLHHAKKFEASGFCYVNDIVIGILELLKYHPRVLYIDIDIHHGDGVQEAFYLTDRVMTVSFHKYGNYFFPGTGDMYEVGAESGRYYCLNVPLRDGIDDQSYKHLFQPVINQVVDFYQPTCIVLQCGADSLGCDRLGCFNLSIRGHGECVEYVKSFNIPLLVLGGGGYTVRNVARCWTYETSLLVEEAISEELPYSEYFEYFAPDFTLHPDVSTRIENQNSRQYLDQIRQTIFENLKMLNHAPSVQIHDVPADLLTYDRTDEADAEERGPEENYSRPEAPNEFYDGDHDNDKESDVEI
Chain of HDAC3 (Q9Y618 395-489 partner limits assumed, species assumed): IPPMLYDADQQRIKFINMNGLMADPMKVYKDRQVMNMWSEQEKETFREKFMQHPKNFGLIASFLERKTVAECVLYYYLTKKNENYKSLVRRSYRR
Chain of SHP2 D61G (Q06124 whole entry D61G): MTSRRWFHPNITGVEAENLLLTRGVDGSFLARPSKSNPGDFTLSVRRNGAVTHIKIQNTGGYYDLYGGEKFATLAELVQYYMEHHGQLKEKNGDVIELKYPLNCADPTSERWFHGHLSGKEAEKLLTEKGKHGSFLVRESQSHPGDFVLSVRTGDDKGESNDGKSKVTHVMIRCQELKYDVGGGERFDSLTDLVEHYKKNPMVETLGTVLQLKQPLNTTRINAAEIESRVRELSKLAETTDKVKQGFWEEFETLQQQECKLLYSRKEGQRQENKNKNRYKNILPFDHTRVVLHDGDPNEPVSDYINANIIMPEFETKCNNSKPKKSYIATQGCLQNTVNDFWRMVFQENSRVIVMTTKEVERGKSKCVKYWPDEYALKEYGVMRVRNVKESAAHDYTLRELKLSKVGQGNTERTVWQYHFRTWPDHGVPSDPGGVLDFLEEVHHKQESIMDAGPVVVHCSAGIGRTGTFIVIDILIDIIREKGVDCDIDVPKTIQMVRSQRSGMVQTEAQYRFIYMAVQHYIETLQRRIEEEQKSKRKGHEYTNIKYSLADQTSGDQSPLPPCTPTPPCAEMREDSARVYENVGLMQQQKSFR
Chain of PTP1B (P18031 whole entry, species assumed): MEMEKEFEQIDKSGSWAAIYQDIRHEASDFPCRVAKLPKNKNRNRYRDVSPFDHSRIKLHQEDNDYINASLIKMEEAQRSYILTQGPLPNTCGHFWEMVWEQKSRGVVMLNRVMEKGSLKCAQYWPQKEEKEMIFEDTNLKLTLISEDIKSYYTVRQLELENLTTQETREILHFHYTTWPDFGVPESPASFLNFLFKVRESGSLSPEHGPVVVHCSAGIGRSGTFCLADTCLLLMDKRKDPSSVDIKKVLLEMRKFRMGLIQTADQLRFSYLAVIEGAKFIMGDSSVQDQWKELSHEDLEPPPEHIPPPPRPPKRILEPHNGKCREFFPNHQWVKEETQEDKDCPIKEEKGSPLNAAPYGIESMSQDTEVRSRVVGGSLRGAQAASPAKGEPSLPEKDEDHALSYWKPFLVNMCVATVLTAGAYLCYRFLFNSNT
Chain of SHP2 WT (Q06124 whole entry): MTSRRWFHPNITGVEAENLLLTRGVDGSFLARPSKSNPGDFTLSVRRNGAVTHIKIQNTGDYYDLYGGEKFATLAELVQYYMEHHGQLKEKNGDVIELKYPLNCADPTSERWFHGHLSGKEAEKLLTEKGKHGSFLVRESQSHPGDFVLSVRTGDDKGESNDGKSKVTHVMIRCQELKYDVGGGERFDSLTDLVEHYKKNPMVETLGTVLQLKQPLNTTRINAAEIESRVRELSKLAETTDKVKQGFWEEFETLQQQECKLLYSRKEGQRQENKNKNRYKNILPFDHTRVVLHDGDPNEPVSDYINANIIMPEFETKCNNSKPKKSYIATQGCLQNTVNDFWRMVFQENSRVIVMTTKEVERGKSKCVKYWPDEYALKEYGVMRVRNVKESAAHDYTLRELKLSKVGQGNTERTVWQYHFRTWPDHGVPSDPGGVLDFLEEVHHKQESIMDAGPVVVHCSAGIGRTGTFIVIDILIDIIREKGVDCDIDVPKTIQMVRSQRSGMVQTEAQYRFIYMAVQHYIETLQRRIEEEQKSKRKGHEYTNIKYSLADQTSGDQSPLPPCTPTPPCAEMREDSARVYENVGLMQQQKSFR
Chain of HDAC2 (Q92769 whole entry, species assumed): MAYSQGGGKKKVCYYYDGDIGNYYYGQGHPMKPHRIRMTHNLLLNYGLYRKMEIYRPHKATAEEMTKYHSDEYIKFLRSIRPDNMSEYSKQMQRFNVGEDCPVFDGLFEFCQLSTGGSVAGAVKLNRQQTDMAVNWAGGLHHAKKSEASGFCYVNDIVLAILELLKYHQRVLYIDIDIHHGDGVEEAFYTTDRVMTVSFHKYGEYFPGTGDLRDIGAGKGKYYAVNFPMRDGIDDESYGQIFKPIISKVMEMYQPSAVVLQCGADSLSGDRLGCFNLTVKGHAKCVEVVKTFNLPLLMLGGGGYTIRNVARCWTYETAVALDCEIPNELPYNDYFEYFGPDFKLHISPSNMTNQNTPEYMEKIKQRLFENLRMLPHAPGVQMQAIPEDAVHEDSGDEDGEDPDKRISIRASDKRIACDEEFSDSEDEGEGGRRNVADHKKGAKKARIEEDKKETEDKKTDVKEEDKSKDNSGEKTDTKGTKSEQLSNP
Chain of MALTI (Q9UDY8 whole entry): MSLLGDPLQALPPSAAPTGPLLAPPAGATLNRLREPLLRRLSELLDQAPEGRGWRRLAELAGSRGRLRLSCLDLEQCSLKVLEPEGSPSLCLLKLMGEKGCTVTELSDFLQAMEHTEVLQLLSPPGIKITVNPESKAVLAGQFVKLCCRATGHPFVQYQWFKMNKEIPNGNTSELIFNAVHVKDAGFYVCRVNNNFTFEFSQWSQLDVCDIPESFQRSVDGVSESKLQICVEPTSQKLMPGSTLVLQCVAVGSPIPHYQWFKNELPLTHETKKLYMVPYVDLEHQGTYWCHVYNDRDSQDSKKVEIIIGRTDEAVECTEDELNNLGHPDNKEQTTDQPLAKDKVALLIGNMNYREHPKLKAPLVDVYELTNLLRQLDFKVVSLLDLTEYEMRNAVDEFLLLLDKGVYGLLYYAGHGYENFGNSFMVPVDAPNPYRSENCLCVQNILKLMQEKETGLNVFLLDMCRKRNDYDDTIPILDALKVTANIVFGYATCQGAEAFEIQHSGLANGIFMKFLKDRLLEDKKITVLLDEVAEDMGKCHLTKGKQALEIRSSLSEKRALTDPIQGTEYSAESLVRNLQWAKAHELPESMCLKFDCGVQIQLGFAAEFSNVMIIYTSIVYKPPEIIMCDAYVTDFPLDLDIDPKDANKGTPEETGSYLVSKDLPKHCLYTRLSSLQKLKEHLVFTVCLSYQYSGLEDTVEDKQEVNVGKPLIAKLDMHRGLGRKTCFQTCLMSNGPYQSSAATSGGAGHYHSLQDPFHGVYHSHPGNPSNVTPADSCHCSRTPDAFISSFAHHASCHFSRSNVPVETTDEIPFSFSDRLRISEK
Chain of CD39 (P49961 whole entry, species assumed): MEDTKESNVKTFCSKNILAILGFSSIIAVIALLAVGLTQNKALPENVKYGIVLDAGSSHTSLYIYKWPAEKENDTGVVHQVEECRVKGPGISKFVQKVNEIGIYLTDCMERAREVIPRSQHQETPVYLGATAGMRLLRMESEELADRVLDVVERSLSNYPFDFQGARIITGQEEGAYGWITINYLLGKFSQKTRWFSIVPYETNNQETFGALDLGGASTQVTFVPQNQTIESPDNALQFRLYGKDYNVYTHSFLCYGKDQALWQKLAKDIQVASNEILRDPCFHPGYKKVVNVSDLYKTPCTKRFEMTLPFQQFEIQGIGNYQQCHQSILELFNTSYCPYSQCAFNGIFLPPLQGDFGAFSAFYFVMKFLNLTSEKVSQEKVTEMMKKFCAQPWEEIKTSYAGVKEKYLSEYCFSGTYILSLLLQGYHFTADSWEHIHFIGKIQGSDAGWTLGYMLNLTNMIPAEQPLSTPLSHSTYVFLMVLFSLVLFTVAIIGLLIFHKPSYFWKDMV
Chain of KRAS WT (P01116 1-188 isoform P01116-2): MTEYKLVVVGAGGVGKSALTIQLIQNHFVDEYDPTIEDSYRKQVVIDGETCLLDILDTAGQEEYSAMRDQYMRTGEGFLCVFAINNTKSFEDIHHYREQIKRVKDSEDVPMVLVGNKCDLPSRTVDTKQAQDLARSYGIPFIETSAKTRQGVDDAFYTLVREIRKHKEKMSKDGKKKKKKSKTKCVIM
Chain of KRAS G12D (P01116 1-188 isoform P01116-2 G12D): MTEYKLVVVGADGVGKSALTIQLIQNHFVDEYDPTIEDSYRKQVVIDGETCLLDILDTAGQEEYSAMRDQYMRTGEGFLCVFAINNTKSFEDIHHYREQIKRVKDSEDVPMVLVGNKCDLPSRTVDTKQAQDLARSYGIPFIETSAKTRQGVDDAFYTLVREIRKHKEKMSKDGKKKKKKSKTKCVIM

With `Cc1c(F)c(N)cc(C(=O)Nc2cc(-n3cc(C(=O)N4CCN(C)CC4)nn3)c(F)cc2N2C[C@@H](C)N(C)[C@@H](C)C2)c1Cl` [HYBI-084, 5-amino-2-chloro-4-fluoro-N-(4-fluoro-5-(4-(4-methylpiperazine-1-carbonyl)-1H-1,2,3-triazol-1-yl)-2-((3S,5R)-3,4,5-trimethylpiperazin-1-yl)phenyl)-3-methylbenzamide] the F ([1]; 1.5 mpk) was 11.4%, the F ([1]; 4.5 mpk) was 37.7% and the Cmax ([1]; 1.5 mg/kg, 1.5 mpk) was 8.4 nM. The Cmax ([1]; 4.5 mg/kg, 4.5 mpk) was 47.6 nM, the AUC(0-t) ([1]; 1.5 mg/kg, 1.5 mpk) was 0.0466 µM·h and the half-life ([1]; 1.5 mg/kg, 1.5 mpk) was 7.5 h. The AUC(0-t) ([1]; 4.5 mg/kg, 4.5 mpk) was 0.459 µM·h, the half-life ([1]; 4.5 mg/kg, 4.5 mpk) was 6.3 h and the fraction unbound [2] was less than 0.07. For the same compound, the IC50 [3] was greater than 1000 nM, the IC50 [4] was greater than 1000 nM and the “Predicted Mean Brain Concentration, Cmin = 24 h” value ([5]; estimated from repeated PO mouse) was 11.1 ng/g. The “Predicted Mean Brain Concentration, Cmin = 24 h” value ([5]; estimated from single PO mouse) was 4.5 ng/g, the “Predicted Mean Brain Concentration, Cmin = 24 h” value ([5]; estimated from single PO rat) was 3.6 ng/g and the IC50 [6] was 3170 nM. It also gave an IC50 [7] greater than 1000 nM, an IC50 [8] greater than 1000 nM and an IC50 [9] greater than 1000 nM. The “Relative Abundance (UV Peak Area % Total)” value [10] was 93.47%, the fraction unbound [11] was less than 0.07 and the “Relative Abundance (UV Peak Area % Total)” value [12] was 92.78%. For the same compound, the IC50 [13] was greater than 1000 nM, the IC50 [14] was greater than 1000 nM and the IC50 [15] was greater than 1000 nM. The IC50 [16] was greater than 1000 nM, the IC50 [17] was greater than 1000 nM and the IC50 [18] was greater than 1000 nM. For the same compound, the IC50 [19] was greater than 1000 nM, the IC50 [20] was greater than 1000 nM and the half-life at 1 μM ([21]; Rat liver S9) was greater than 2.42 h. For the same compound, the microsomal CLint at 1 μM ([21]; Rat liver S9) was less than 4.8 µL/min/mg and the “% Remaining after 60 min incubation” value ([21]; Rat liver S9, 1 μM, 5 mM GSH, 37° C.) was 80.1%.
